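Tested at 5 concentrations; 48 h exposure; 96-well plates; endpoints linearly interpolated, else capped at highest concentration. Abbreviation: GI50, concentration required for 50% inhibition of growth. At the TGI there is no net growth.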
Key:
Experiment in all cases: growth of human tumour cells (NCI), 48 h
CCRF-CEM leukemia = tested on: CCRF-CEM leukemia
COLO 205 colon = tested on: COLO 205 colon
NCI-H23 lung = tested on: NCI-H23 lung
HCC-2998 colon = tested on: HCC-2998 colon
SR leukemia = tested on: SR leukemia
SK-MEL-5 melanoma = tested on: SK-MEL-5 melanoma
M14 melanoma = tested on: M14 melanoma
SW-620 colon = tested on: SW-620 colon

| SMILES | GI50 (CCRF-CEM leukemia) [µM] | TGI (CCRF-CEM leukemia) [µM] | GI50 (COLO 205 colon) [µM] | TGI (COLO 205 colon) [µM] | GI50 (NCI-H23 lung) [µM] | TGI (NCI-H23 lung) [µM] | GI50 (HCC-2998 colon) [µM] | TGI (HCC-2998 colon) [µM] | GI50 (SR leukemia) [µM] | TGI (SR leukemia) [µM] | GI50 (SK-MEL-5 melanoma) [µM] | TGI (SK-MEL-5 melanoma) [µM] | GI50 (M14 melanoma) [µM] | TGI (M14 melanoma) [µM] | GI50 (SW-620 colon) [µM] | TGI (SW-620 colon) [µM] |
| --- | --- | --- | --- | --- | --- | --- | --- | --- | --- | --- | --- | --- | --- | --- | --- | --- |
| O=Nc1c(-c2c(O)[nH]c3cc(Br)ccc23)[nH]c2ccccc12 | 2.53 | > 100 | 1.35 | 2.84 | 1.63 | 4.28 | 1.6 | 3.08 | 3.26 | 64.2 | 0.723 | 1.99 | 1.76 | 3.48 | – | – |
| CC(C)(c1ccccc1)c1cc(O)c(C(C)(C)c2ccccc2)cc1O | 3 | 13.6 | 1.66 | 3.4 | 2.27 | 16.2 | 2.98 | 12.8 | 3 | 9.86 | 1.02 | 2.65 | 1.82 | 4.99 | 2.77 | 14.6 |
| O=C1C=CC(=C(c2ccccc2)c2ccc(O)cc2)C=C1 | – | > 100 | – | 49.7 | – | 42.9 | – | 63.9 | – | 40.8 | – | 26.4 | – | 91.6 | – | 90.9 |
| COc1c(/C=C/C=O)cc2c(c1OC)OCO2 | – | > 100 | – | > 100 | – | > 100 | – | 78.5 | – | 64.8 | – | 50.3 | – | 56.2 | – | > 100 |
| COc1ccc(C2CC(c3ccc(Nc4ccnc5cc(Cl)ccc45)cc3)=NN2C=O)cc1 (configuration not stated) | 2.71 | > 100 | 3.56 | > 100 | 50.6 | > 100 | 18.1 | > 100 | 2.83 | 6.64 | 0.617 | 43.2 | 7.67 | > 100 | 35.8 | > 100 |
| COC1=C(C)C(=O)c2c(c(CCCl)c3n2CCC3OC(C)=O)C1=O (configuration not stated) | 3.33 | > 95.8 | 0.136 | 0.399 | 0.0586 | 0.992 | 0.204 | 0.582 | 0.155 | > 32.5 | 0.0849 | 0.228 | 0.171 | 0.592 | 0.453 | 12.3 |
| C/C(=N\OCC(O)CNCCSCc1ccccc1)c1ccccc1Cl (configuration not stated) | – | 72.9 | – | 38.4 | – | > 100 | – | 40.9 | – | 78.3 | – | 33.4 | – | 48 | – | 40.6 |
| Clc1cc(Cl)c(OCCCCCCN2CCNCC2)c(Cl)c1 | 1.89 | 4.31 | 1.82 | 3.58 | 7.31 | 21.8 | 2 | 4.1 | 2.16 | 5.64 | 1.66 | 3.06 | 1.84 | 3.65 | 1.91 | 3.75 |
